# Source: patent publication EP2193713A1, “Method for fighting animal pests without damaging pollinating insects” (Bayer CropScience AG, priority 2008, dated 2010)
# Like-named read-outs stand apart in the source and are kept apart here.
# What was measured:
# Type in all cases: in vivo
# Apis mellifera [1] = conditions: for Zahl toter Arbeiterbienen: 50 g a.s./ha
# From the text: (§1) Der Test wurde gemäß EPPO (European Plant Protection Organisation) Leitlinie 170 wie folgt durchgeführt:
# (§2) Die Mortalität von Arbeiterbienen vor dem Bienenstock wird mittels einer Falle für tote Bienen (dead bee trap) bestimmt. Die Falle besteht aus Maschendraht und ist vor dem Bienenstock angebracht. Einzelne, lebende Bienen können die Maschen des Drahts passieren, der Transport toter Bienen durch die Maschen ist nicht möglich, weswegen tote Bienen sich in der Falle ansammeln. Tabelle 1 (siehe auch Figur 1)
# Apis mellifera [2] = assay: Tunnel test / spray application / bees: acute mortality of pupae in front of the hive; conditions: 50 g a.s./ha
# From the text: as §1
# Tabelle 2 (siehe auch Figur 2)
# Apis mellifera [3] = assay: Tunnel test / spray application / bees: brood development (share of comb cells); conditions: 50 g a.s./ha
# From the text: as §1
# Über alle Waben eines Bienenstocks wird der jeweilige Anteil an Zellen bestimmt, der durch Pollen, Nektar, Eier, Larven oder Puppen belegt ist bzw. leer ist. […]
# Apis mellifera [4] = assay: Tunnel test / spray application / bees: foraging activity; conditions: for Aktivität der Nahrungssuche, Zahl der Bienen / min / m^2: 50 g a.s./ha
# From the text: as §1
# Während einer Minute werden in einem abgegrenzten Bereich von 2 x 1 m^2 die Bienen gezählt, die auf Blüten absitzen. Tabelle 3 (siehe auch Figur 3)
# Apis mellifera [5] = assay: Greenhouse test / residue test / bees: mortality after contact with treated tomato leaves; conditions: 50 g a.s./ha
# From the text: Der Versuch wurde wie folgt durchgeführt:
# Die Tomatenpflanzen wurden im Gewächshaus mit den Testverbindungen bzw. der Referenzsubstanz behandelt (Spritzappliaktion, 3 fache Wiederholung). 1, 3, 6 und 13 Tage nach Behandlung (DAA) wurden Blätter entnommen (je 5 Blattproben pro Behandlung) und in Boxen gegeben. In jede Box wurden 10 Bienen transferiert und die Boxen wurden unter kontrollierten Bedingungen aufbewahrt, wobei die Bienen mit Zuckerlösung gefüttert wurden. 24, 48 und 72 nach Transfer der Bienen wurde deren Mortalität bestimmt. Tabelle 9 (siehe auch Figur 9)
# Apis mellifera [6] = assay: Tent test / drench application / bees: foraging activity; conditions: for Aktivität der Nahrungssuche, Zahl der Bienen / min / 4 m^2: 10 mg a.s./pl.
# From the text: Der Test wurde wie folgt durchgeführt:
# Apis mellifera [7] = conditions: for Zahl toter Arbeiterbienen: 10 mg a.s./pl.
# From the text: as §2
# [8] = result in words, 27 Tage nach Applikation
structure (smiles),measurement,setting,value
"CN1COCN(Cc2cnc(Cl)s2)/C1=N\[N+](=O)[O-] [Thiamethoxam, reference compound]",Zahl toter Arbeiterbienen,Apis mellifera [1]; 0 DAA b (15:15 Uhr),420
same,Zahl toter Arbeiterbienen,Apis mellifera [1]; 0 DAA c (17:15 Uhr),"45,3"
same,Zahl toter Arbeiterbienen,Apis mellifera [1]; 1 DAA,"152,8"
same,Zahl toter Arbeiterbienen,Apis mellifera [1]; 2 DAA,"229,4"
same,Zahl toter Arbeiterbienen,Apis mellifera [1]; 3 DAA,"50,2"
same,Zahl toter Arbeiterbienen,Apis mellifera [1]; 4 DAA,"891,6"
same,Zahl toter Arbeiterbienen,Apis mellifera [1]; 5 DAA,"2,4"
same,Zahl toter Arbeiterbienen,Apis mellifera [1]; 6 DAA,9
same,Zahl toter Arbeiterbienen,Apis mellifera [1]; 11 DAA,"16,5"
same,Zahl toter Arbeiterbienen,Apis mellifera [1]; -3 DAA (before application),"1,6"
same,Mortalität von Arbeiterbienen vor dem Bienenstock,"Apis mellifera [1]; result in words, tunnel test, spray, I-5 75 und 150 g a.s./ha, Thiamethoxam 50 g a.s./ha",ausgeprägte Mortalität
same,Zahl toter Puppen,Apis mellifera [2]; 0 DAA c (17:15 Uhr),0
same,Zahl toter Puppen,Apis mellifera [2]; 1 DAA,0
same,Zahl toter Puppen,Apis mellifera [2]; 2 DAA,"0,1"
same,Zahl toter Puppen,Apis mellifera [2]; 5 DAA,"0,5"
same,Zahl toter Puppen,Apis mellifera [2]; 6 DAA,0
same,Zahl toter Puppen,Apis mellifera [2]; 11 DAA,0
same,Zahl toter Puppen,Apis mellifera [2]; 14 DAA,"0,4"
same,Zahl toter Puppen,Apis mellifera [2]; 18 DAA,0
same,Zahl toter Puppen,Apis mellifera [2]; 21 DAA,0
same,Zahl toter Puppen,Apis mellifera [2]; 25 DAA,"0,2"
same,Zahl toter Puppen,Apis mellifera [2]; -3 DAA (before application),0
same,Anteil an Zellen: Eier,Apis mellifera [3]; 1 Tag vor Applikation,"17,5%"
same,Anteil an Zellen: Larven,Apis mellifera [3]; 1 Tag vor Applikation,9%
same,Anteil an Zellen: Leer,Apis mellifera [3]; 1 Tag vor Applikation,30%
same,Anteil an Zellen: Nektar,Apis mellifera [3]; 1 Tag vor Applikation,12%
same,Anteil an Zellen: Pollen,Apis mellifera [3]; 1 Tag vor Applikation,"2,4%"
same,Anteil an Zellen: Puppen,Apis mellifera [3]; 1 Tag vor Applikation,"29,1%"
same,Anteil an Zellen: Eier,Apis mellifera [3]; 6 Tage nach Applikation,"11,4%"
same,Anteil an Zellen: Larven,Apis mellifera [3]; 6 Tage nach Applikation,"6,3%"
same,Anteil an Zellen: Leer,Apis mellifera [3]; 6 Tage nach Applikation,"30,9%"
same,Anteil an Zellen: Nektar,Apis mellifera [3]; 6 Tage nach Applikation,"19,4%"
same,Anteil an Zellen: Pollen,Apis mellifera [3]; 6 Tage nach Applikation,"3,3%"
same,Anteil an Zellen: Puppen,Apis mellifera [3]; 6 Tage nach Applikation,"28,7%"
same,Anteil an Zellen: Eier,Apis mellifera [3]; 14 Tage nach Applikation,"19,4%"
same,Anteil an Zellen: Larven,Apis mellifera [3]; 14 Tage nach Applikation,"7,4%"
same,Anteil an Zellen: Leer,Apis mellifera [3]; 14 Tage nach Applikation,"51,8%"
same,Anteil an Zellen: Nektar,Apis mellifera [3]; 14 Tage nach Applikation,"9,2%"
same,Anteil an Zellen: Pollen,Apis mellifera [3]; 14 Tage nach Applikation,"1,5%"
same,Anteil an Zellen: Puppen,Apis mellifera [3]; 14 Tage nach Applikation,"10,7%"
same,Anteil an Zellen: Eier,Apis mellifera [3]; 27 Tage nach Applikation,"6,1%"
same,Anteil an Zellen: Larven,Apis mellifera [3]; 27 Tage nach Applikation,2%
same,Anteil an Zellen: Leer,Apis mellifera [3]; 27 Tage nach Applikation,52%
same,Anteil an Zellen: Nektar,Apis mellifera [3]; 27 Tage nach Applikation,"15,5%"
same,Anteil an Zellen: Pollen,Apis mellifera [3]; 27 Tage nach Applikation,"5,1%"
same,Anteil an Zellen: Puppen,Apis mellifera [3]; 27 Tage nach Applikation,"19,2%"
same,Zahl der Larven,Apis mellifera [3]; [8],starke Abnahme
same,leere Wabenzellen,Apis mellifera [3]; [8],Verdoppelung
same,"Aktivität der Nahrungssuche, Zahl der Bienen / min / m^2",Apis mellifera [4]; 0 DAA a (09:30 Uhr),"26,8 Bienen / min / m^2"
same,"Aktivität der Nahrungssuche, Zahl der Bienen / min / m^2",Apis mellifera [4]; 0 DAA c (14:15 Uhr),"0,9 Bienen / min / m^2"
same,"Aktivität der Nahrungssuche, Zahl der Bienen / min / m^2",Apis mellifera [4]; 0 DAA e (17:15 Uhr),"0,4 Bienen / min / m^2"
same,"Aktivität der Nahrungssuche, Zahl der Bienen / min / m^2",Apis mellifera [4]; 1 DAA b (15:30 Uhr),0 Bienen / min / m^2
same,"Aktivität der Nahrungssuche, Zahl der Bienen / min / m^2",Apis mellifera [4]; 2 DAA,"1,5 Bienen / min / m^2"
same,"Aktivität der Nahrungssuche, Zahl der Bienen / min / m^2",Apis mellifera [4]; 3 DAA,"1,6 Bienen / min / m^2"
same,"Aktivität der Nahrungssuche, Zahl der Bienen / min / m^2",Apis mellifera [4]; 6 DAA,"5,4 Bienen / min / m^2"
same,"Aktivität der Nahrungssuche, Zahl der Bienen / min / m^2",Apis mellifera [4]; -1 DAA (before application),"26,1 Bienen / min / m^2"
same,"Aktivität der Nahrungssuche, Zahl der Bienen / min / m^2",Apis mellifera [4]; -2 DAA (before application),"35,2 Bienen / min / m^2"
same,"Aktivität der Nahrungssuche, Zahl der Bienen / min / m^2",Apis mellifera [4]; -3 DAA (before application),"24,5 Bienen / min / m^2"
same,Aktivität der Nahrungssuche,"Apis mellifera [4]; result in words, tunnel test, spray, I-5 75 und 150 g a.s./ha, Thiamethoxam 50 g a.s./ha directly after application",fast vollständige Einstellung der Aktivität der Nahrungssuche
same,Mortalität,"Apis mellifera [5]; leaves taken 1 Tag nach Behandlung, 24 h contact",100%
same,Mortalität,"Apis mellifera [5]; leaves taken 1 Tag nach Behandlung, 48 h contact",100%
same,Mortalität,"Apis mellifera [5]; leaves taken 1 Tag nach Behandlung, 72 h contact",100%
same,Mortalität,"Apis mellifera [5]; leaves taken 3 Tage nach Behandlung, 24 h contact",100%
same,Mortalität,"Apis mellifera [5]; leaves taken 3 Tage nach Behandlung, 48 h contact",100%
same,Mortalität,"Apis mellifera [5]; leaves taken 3 Tage nach Behandlung, 72 h contact",100%
same,Mortalität,"Apis mellifera [5]; leaves taken 6 Tage nach Behandlung, 24 h contact",100%
same,Mortalität,"Apis mellifera [5]; leaves taken 6 Tage nach Behandlung, 48 h contact",100%
same,Mortalität,"Apis mellifera [5]; leaves taken 6 Tage nach Behandlung, 72 h contact",100%
same,Mortalität,"Apis mellifera [5]; leaves taken 13 Tage nach Behandlung, 24 h contact","93,3%"
same,Mortalität,"Apis mellifera [5]; leaves taken 13 Tage nach Behandlung, 48 h contact",93%
same,Mortalität,"Apis mellifera [5]; leaves taken 13 Tage nach Behandlung, 72 h contact","93,3%"
same,"Aktivität der Nahrungssuche, Zahl der Bienen / min / 4 m^2",Apis mellifera [6]; 5 DAA,28 Bienen / min / 4 m^2
same,"Aktivität der Nahrungssuche, Zahl der Bienen / min / 4 m^2",Apis mellifera [6]; 6 DAA b (14:30 Uhr),70 Bienen / min / 4 m^2
same,"Aktivität der Nahrungssuche, Zahl der Bienen / min / 4 m^2",Apis mellifera [6]; 7 DAA,23 Bienen / min / 4 m^2
same,"Aktivität der Nahrungssuche, Zahl der Bienen / min / 4 m^2",Apis mellifera [6]; 8 DAA,25 Bienen / min / 4 m^2
same,"Aktivität der Nahrungssuche, Zahl der Bienen / min / 4 m^2",Apis mellifera [6]; 9 DAA,19 Bienen / min / 4 m^2
same,"Aktivität der Nahrungssuche, Zahl der Bienen / min / 4 m^2",Apis mellifera [6]; 11 DAA,16 Bienen / min / 4 m^2
same,"Aktivität der Nahrungssuche, Zahl der Bienen / min / 4 m^2",Apis mellifera [6]; 13 DAA,14 Bienen / min / 4 m^2
same,"Aktivität der Nahrungssuche, Zahl der Bienen / min / 4 m^2",Apis mellifera [6]; 15 DAA,8 Bienen / min / 4 m^2
same,"Aktivität der Nahrungssuche, Zahl der Bienen / min / 4 m^2",Apis mellifera [6]; 16 DAA,15 Bienen / min / 4 m^2
same,"Aktivität der Nahrungssuche, Zahl der Bienen / min / 4 m^2",Apis mellifera [6]; 17 DAA,13 Bienen / min / 4 m^2
same,"Aktivität der Nahrungssuche, Zahl der Bienen / min / 4 m^2",Apis mellifera [6]; 18 DAA,6 Bienen / min / 4 m^2
same,Aktivität der Nahrungssuche,"Apis mellifera [6]; result in words, tent test, drench, I-5 20 mg a.s. / Pflanze, Thiamethoxam 10 mg a.s. / Pflanze (13 Tage nach Applikation)",fast vollständige Einstellung der Aktivität der Nahrungssuche
same,Zahl toter Arbeiterbienen,Apis mellifera [7]; 6 DAA a (9:30 Uhr),143
same,Zahl toter Arbeiterbienen,Apis mellifera [7]; 6 DAA b (14:30 Uhr),35
same,Zahl toter Arbeiterbienen,Apis mellifera [7]; 7 DAA,394
same,Zahl toter Arbeiterbienen,Apis mellifera [7]; 8 DAA,143
same,Zahl toter Arbeiterbienen,Apis mellifera [7]; 9 DAA,78
same,Zahl toter Arbeiterbienen,Apis mellifera [7]; 10 DAA,295
same,Zahl toter Arbeiterbienen,Apis mellifera [7]; 11 DAA,110
same,Zahl toter Arbeiterbienen,Apis mellifera [7]; 14 DAA,40
same,Zahl toter Arbeiterbienen,Apis mellifera [7]; 16 DAA,74
same,Zahl toter Arbeiterbienen,Apis mellifera [7]; 18 DAA,29
same,Mortalität von Arbeiterbienen vor dem Bienenstock,"Apis mellifera [7]; result in words, tent test, drench, I-5 20 mg a.s. / Pflanze, Thiamethoxam 10 mg a.s. / Pflanze",ausgeprägte Mortalität
